The subject of experiment [1] is antibodies in sera from SARS patients (sera 1a, 1b, 2, 6, 37, 62, London, SARS-yellow, SARS-green). It counts as binding, human. Further details: Binding of serum 6 to linear peptides of protein X1 of SARS-CoV Urbani / Binding of serum 37 to linear peptides of protein X1 of SARS-CoV Urbani / Binding of serum 6 to looped/cyclic peptide (PEPSCAN-ELISA) / Binding of serum 37 to looped/cyclic peptide (PEPSCAN-ELISA) / Binding of serum 37 to looped/cyclic peptides of protein X1 of SARS-CoV Urbani / Binding of serum 6 to linear peptides of protein X2 / Binding of serum 37 to linear peptides of protein X2 / Binding of serum 37 to looped/cyclic peptides of protein X2 of SARS-CoV Urbani / Binding of serum 6 to linear peptides of protein M of SARS-CoV Urbani / Binding of serum 37 to linear peptides of protein M of SARS-CoV Urbani / Binding of serum 6 to looped/cyclic peptides of protein M of SARS-CoV Urbani / Binding of serum 37 to looped/cyclic peptides of protein M of SARS-CoV Urbani / Binding of serum 6 to linear peptides of protein X3 of SARS-CoV Urbani / Binding of serum 37 to linear peptides of protein X3 of SARS-CoV Urbani / Binding of serum 37 to looped/cyclic peptides of protein X3 of SARS-CoV Urbani / Binding of serum 6 to linear peptides of protein X4 of SARS-CoV Urbani / Binding of serum 37 to linear peptides of protein X4 of SARS-CoV Urbani / Binding of serum 37 to looped/cyclic peptides of protein X4 of SARS-CoV Urbani / Binding of serum 6 to linear peptides of protein X5 of SARS-CoV Urbani / Binding of serum 37 to linear peptides of protein X5 of SARS-CoV Urbani / Binding of serum 37 to looped/cyclic peptides of protein X5 of SARS-CoV Urbani / Binding of serum 6 to linear peptides of protein N of SARS-CoV Urbani / Binding of serum 37 to linear peptides of protein N of SARS-CoV Urbani / Binding of serum 6 to linear peptide (PEPSCAN-ELISA) / Binding of serum 1a to looped/cyclic peptides of protein N of SARS-CoV Urbani / Binding of serum 1b to looped/cyclic peptides of protein N of SARS-CoV Urbani / Binding of serum 2 to looped/cyclic peptides of protein N of SARS-CoV Urbani / Binding of serum 6 to looped/cyclic peptides of protein N of SARS-CoV Urbani / Binding of serum 37 to looped/cyclic peptides of protein N of SARS-CoV Urbani / Binding of serum 62 to looped/cyclic peptides of protein N of SARS-CoV Urbani / Binding of serum London to looped/cyclic peptides of protein N of SARS-CoV Urbani / Binding of serum SARS-green to looped/cyclic peptides of protein N of SARS-CoV Urbani: unit not given here.

For experiment [2], the system named is control sera (pooled serum of ten healthy LUMC hospital workers; commercial negative donor pooled serum from the Dutch bloodbank). The experiment is classed as binding, human. Also noted: Binding of Control serum LUMC to linear peptides / Binding of Control serum Blood-bank to linear peptides / Binding of Control serum LUMC to looped peptides / Binding of Control Serum Blood-Bank to Looped peptides / Binding of Control serum LUMC to linear peptides of the protein M of SARS-CoV Urbani / Binding of Control serum Blood-bank to linear peptides of the protein M of SARS-CoV Urbani / Binding of Control serum LUMC to looped peptides of the protein M of SARS-CoV Urbani / Binding of Control Serum Blood-Bank to Looped peptides of the protein M of SARS-CoV Urbani: unit not given here.

For experiment [3], the system named is rabbit serum obtained by immunizing a rabbit with the SARS-CoV strain Frankfurt 1. The experiment is classed as binding. Also noted: Binding of a rabbit serum to linear peptides / Binding of a rabbit serum to looped peptides / Rabbit serum linear peptides / Rabbit serum looped peptides / Binding of a rabbit serum to linear peptides of protein N of SARS-CoV Urbani (Rabbit serum linear peptides) / Binding of a rabbit serum to looped/cyclic peptides of protein N of SARS-CoV Urbani (Rabbit serum looped peptides): unit not given here.

As for ITVSQIQLSLLKVTA, in experiment [1], the “Binding of serum 1a to linear peptides of protein X2” value is listed as 0.6, the “Binding of serum 1a to looped/cyclic peptides of protein X2 of SARS-CoV Urbani” value is recorded as 0.5, the “Binding of serum 1b to linear peptides of protein X2” value was found to be 0.5 and the “Binding of serum 1b to looped/cyclic peptides of protein X2 of SARS-CoV Urbani” value was 0.5. In experiment [1], the “Binding of serum 2 to linear peptides of protein X2” value came to 0.4, the “Binding of serum 2 to looped/cyclic peptides of protein X2 of SARS-CoV Urbani” value was found to be 0.4, the “Binding of serum 6 to linear peptides of protein X2” value amounted to 0.5 and the “Binding of serum 6 to looped/cyclic peptides of protein X2 of SARS-CoV Urbani” value was 1.4. Also, in experiment [1], the “Binding of serum 37 to linear peptides of protein X2” value was 0.6, the “Binding of serum 37 to looped/cyclic peptides of protein X2 of SARS-CoV Urbani” value is listed as 0.5, the “Binding of serum 62 to linear peptides of protein X2” value was 0.4 and the “Binding of serum 62 to looped/cyclic peptides of protein X2 of SARS-CoV Urbani” value was found to be 0.5. Moreover, in experiment [1], the “Binding of serum London to linear peptides of protein X2” value is 0.4, the “Binding of serum London to looped/cyclic peptides of protein X2 of SARS-CoV Urbani” value was determined as 1.4, the “Binding of serum SARS-green to linear peptides of protein X2” value was 0.1 and the “Binding of serum SARS-green to looped/cyclic peptides of protein X2 of SARS-CoV Urbani” value was 0.3. In experiment [1], the “Binding of serum SARS-yellow to linear peptides of protein X2” value stood at 0.7 and the “Binding of serum SARS-yellow to looped/cyclic peptides of protein X2 of SARS-CoV Urbani” value is 0.6. Further, in experiment [2], the “Binding of Control Serum Blood-Bank to Looped peptides” value is on record as 0.6, the “Binding of Control serum Blood-bank to linear peptides” value turned out to be 0.5, the “Binding of Control serum LUMC to linear peptides” value amounted to 0.6 and the “Binding of Control serum LUMC to looped peptides” value is 0.7. In addition, in experiment [3], the “Binding of a rabbit serum to linear peptides” value came out at 0.7 and the “Binding of a rabbit serum to looped peptides” value turned out to be 0.4.

Turning to IVAALVFLILCFTIK, in experiment [1], the “Binding of serum 1a to linear peptides of protein X4 of SARS-CoV Urbani” value turned out to be 0.6, the “Binding of serum 1a to looped/cyclic peptides of protein X4 of SARS-CoV Urbani” value amounted to 0.7, the “Binding of serum 1b to linear peptides of protein X4 of SARS-CoV Urbani” value is on record as 0.6 and the “Binding of serum 1b to looped/cyclic peptides of protein X4 of SARS-CoV Urbani” value was determined as 0.4. In experiment [1], the “Binding of serum 2 to linear peptides of protein X4 of SARS-CoV Urbani” value turned out to be 0.4, the “Binding of serum 2 to looped/cyclic peptides of protein X4 of SARS-CoV Urbani” value was 0.6, the “Binding of serum 6 to linear peptides of protein X4 of SARS-CoV Urbani” value came to 0.5 and the “Binding of serum 6 to looped/cyclic peptides of protein X4 of SARS-CoV Urbani” value came to 1.4. Besides, in experiment [1], the “Binding of serum 37 to linear peptides of protein X4 of SARS-CoV Urbani” value was found to be 0.7, the “Binding of serum 37 to looped/cyclic peptides of protein X4 of SARS-CoV Urbani” value is on record as 0.7, the “Binding of serum 62 to linear peptides of protein X4 of SARS-CoV Urbani” value was 0.7 and the “Binding of serum 62 to looped/cyclic peptides of protein X4 of SARS-CoV Urbani” value turned out to be 0.7. Moreover, in experiment [1], the “Binding of serum London to linear peptides of protein X4 of SARS-CoV Urbani” value is given as 0.7, the “Binding of serum London to looped/cyclic peptides of protein X4 of SARS-CoV Urbani” value is recorded as 3.0, the “Binding of serum SARS-green to linear peptides of protein X4 of SARS-CoV Urbani” value worked out at 0.5 and the “Binding of serum SARS-green to looped/cyclic peptides of protein X4 of SARS-CoV Urbani” value is on record as 0.5. In experiment [1], the “Binding of serum SARS-yellow to linear peptides of protein X4 of SARS-CoV Urbani” value is on record as 0.6 and the “Binding of serum SARS-yellow to looped/cyclic peptides of protein X4 of SARS-CoV Urbani” value is reported as 0.7. Moreover, in experiment [2], the “Binding of Control Serum Blood-Bank to Looped peptides” value is given as 0.8, the “Binding of Control serum Blood-bank to linear peptides” value was found to be 0.6, the “Binding of Control serum LUMC to linear peptides” value came out at 0.5 and the “Binding of Control serum LUMC to looped peptides” value was 0.7. For the same sequence, in experiment [3], the “Rabbit serum linear peptides” value is recorded as 0.4 and the “Rabbit serum looped peptides” value is on record as 0.6.

For the sequence IVGLMWLSYFVASFR, in experiment [1], the “Binding of serum 1a to linear peptides of protein M of SARS-CoV Urbani” value amounted to 0.6, the “Binding of serum 1a to looped/cyclic peptides of protein M of SARS-CoV Urbani” value is on record as 0.7, the “Binding of serum 1b to linear peptides of protein M of SARS-CoV Urbani” value was found to be 0.4 and the “Binding of serum 1b to looped/cyclic peptides of protein M of SARS-CoV Urbani” value amounted to 0.5. Moreover, in experiment [1], the “Binding of serum 2 to linear peptides of protein M of SARS-CoV Urbani” value turned out to be 0.5, the “Binding of serum 2 to looped/cyclic peptides of protein M of SARS-CoV Urbani” value is 1.0, the “Binding of serum 6 to linear peptides of protein M of SARS-CoV Urbani” value is 0.3 and the “Binding of serum 6 to looped/cyclic peptides of protein M of SARS-CoV Urbani” value is 0.7. In experiment [1], the “Binding of serum 37 to linear peptides of protein M of SARS-CoV Urbani” value stood at 0.5, the “Binding of serum 37 to looped/cyclic peptides of protein M of SARS-CoV Urbani” value came out at 0.7, the “Binding of serum 62 to linear peptides of protein M of SARS-CoV Urbani” value turned out to be 0.7 and the “Binding of serum 62 to looped/cyclic peptides of protein M of SARS-CoV Urbani” value came to 0.7. Besides, in experiment [1], the “Binding of serum London to linear peptides of protein M of SARS-CoV Urbani” value turned out to be 0.3, the “Binding of serum London to looped/cyclic peptides of protein M of SARS-CoV Urbani” value was 0.2, the “Binding of serum SARS-green to linear peptides of protein M of SARS-CoV Urbani” value stood at 0.2 and the “Binding of serum SARS-green to looped/cyclic peptides of protein M of SARS-CoV Urbani” value was found to be 0.1. In experiment [1], the “Binding of serum SARS-yellow to linear peptides of protein M of SARS-CoV Urbani” value is 0.1 and the “Binding of serum SARS-yellow to looped/cyclic peptides of protein M of SARS-CoV Urbani” value is 0.6. In experiment [2], the “Binding of Control Serum Blood-Bank to Looped peptides of the protein M of SARS-CoV Urbani” value is on record as 0.7, the “Binding of Control serum Blood-bank to linear peptides of the protein M of SARS-CoV Urbani” value turned out to be 0.5, the “Binding of Control serum LUMC to linear peptides of the protein M of SARS-CoV Urbani” value came out at 0.2 and the “Binding of Control serum LUMC to looped peptides of the protein M of SARS-CoV Urbani” value was 0.6. Further, in experiment [3], the “Rabbit serum linear peptides” value was 0.3 and the “Rabbit serum looped peptides” value is 0.5.

Regarding IWNLDVIISSIVRQL, in experiment [1], the “Binding of serum 1a to linear peptides of protein X3 of SARS-CoV Urbani” value was 0.7, the “Binding of serum 1a to looped/cyclic peptides of protein X3 of SARS-CoV Urbani” value is listed as 0.5, the “Binding of serum 1b to linear peptides of protein X3 of SARS-CoV Urbani” value is reported as 0.3 and the “Binding of serum 1b to looped/cyclic peptides of protein X3 of SARS-CoV Urbani” value was determined as 0.4. Also, in experiment [1], the “Binding of serum 2 to linear peptides of protein X3 of SARS-CoV Urbani” value is listed as 0.5, the “Binding of serum 2 to looped/cyclic peptides of protein X3 of SARS-CoV Urbani” value turned out to be 0.5, the “Binding of serum 6 to linear peptides of protein X3 of SARS-CoV Urbani” value is 0.5 and the “Binding of serum 6 to looped/cyclic peptides of protein X3 of SARS-CoV Urbani” value is on record as 0.6. Moreover, in experiment [1], the “Binding of serum 37 to linear peptides of protein X3 of SARS-CoV Urbani” value turned out to be 0.6, the “Binding of serum 37 to looped/cyclic peptides of protein X3 of SARS-CoV Urbani” value amounted to 0.5, the “Binding of serum 62 to linear peptides of protein X3 of SARS-CoV Urbani” value amounted to 0.6 and the “Binding of serum 62 to looped/cyclic peptides of protein X3 of SARS-CoV Urbani” value worked out at 0.4. Besides, in experiment [1], the “Binding of serum London to linear peptides of protein X3 of SARS-CoV Urbani” value is on record as 0.6, the “Binding of serum London to looped/cyclic peptides of protein X3 of SARS-CoV Urbani” value turned out to be 0.2, the “Binding of serum SARS-green to linear peptides of protein X3 of SARS-CoV Urbani” value came out at 0.4 and the “Binding of serum SARS-green to looped/cyclic peptides of protein X3 of SARS-CoV Urbani” value is reported as 0.3. In experiment [1], the “Binding of serum SARS-yellow to linear peptides of protein X3 of SARS-CoV Urbani” value is given as 0.2 and the “Binding of serum SARS-yellow to looped/cyclic peptides of protein X3 of SARS-CoV Urbani” value is 0.6. Besides, in experiment [2], the “Binding of Control Serum Blood-Bank to Looped peptides of the protein X3 of SARS-CoV Urbani” value is recorded as 0.7, the “Binding of Control serum Blood-bank to linear peptides of the protein X3 of SARS-CoV Urbani” value is 0.6, the “Binding of Control serum LUMC to linear peptides of the protein X3 of SARS-CoV Urbani” value worked out at 0.5 and the “Binding of Control serum LUMC to looped peptides of the protein X3 of SARS-CoV Urbani” value was found to be 0.7. Further, in experiment [3], the “Rabbit serum linear peptides” value was determined as 0.2 and the “Rabbit serum looped peptides” value is given as 0.4.

The values are drawn from US20070128217A1 (priority 2003, published 2007).
